Laboratory results: patent publication US12398123B2, “Chemical inhibition of the E3 ligase subunit FBXO7 confers neuroprotection and anti-inflammatory activity by stabilizing mitochondria” (University of Pittsburgh—Of the Commonwealth System of …, priority 2017, dated 2025)
Peptide text beside a SMILES is read from it. * marks the point of attachment. Cbz = O=C(OCc1ccccc1)*

Key:
primary fibroblasts = assay: 6-OHDA model in primary fibroblasts; conditions: 6-OHDA 300 M (unit prefix printed as image), 19 h
SH-SY5Y cells = assay: MPP+ elicited injury in SH-SY5Y cells, AlamarBlue cell viability; conditions: 5 μg/ml with MPP+ for 24 h, relative to BC1465
[1] = system: P. aeruginosa (PA103) lung inflammatory injury; assay: experimental pneumonia: mice given PA103 i.t.
primary cortical neurons = assay: morphological injury of GFP-transfected primary cortical neurons challenged with MPP+; conditions: MPP+ 24 h
Pink1 [2] = assay: target validation: Pink1 levels in BEAS-2B cells with control or Fbxo7 siRNA; conditions: Fbxo7 siRNA 3 days, compound 18 h
PINK1 [3] = assay: human lung slices challenged with LPS: Pink1 immunoblotting; conditions: compound 4 h, then LPS 100 ng/ml 4 h
[4] = system: TNF release from human PBMCs; assay: LPS stimulated TNF secretion from PBMCs (ELISA); assay type: cell-based; conditions: 2 h pretreatment, then LPS 10 ng/ml 4 h
H9C2 cells [5] = assay: mitochondrial membrane potential after CCCP in H9C2 cells, JC1 staining, confocal microscopy; conditions: 100 ng/ml 16 h, CCCP 20 μM 2 h
PINK1 [6] = assay type: cell-based, human; conditions: SHSY5Y PINK1-Flag, compound 3 h, cycloheximide 10 μg/ml 1 h
Excerpt: FIGS. 7A-7H. […] FIG. 7A. […] FIG. 7B. […] FIG. 7C. […] FIG. 7D-7E. […] Scale bar=100 μm.

H9C2 cells [7] = assay: CCCP triggered mitochondrial injury in H9C2 cells, Mitosense Red and Annexin V flow cytometry; assay type: cell-based, rat; conditions: 100 ng/ml 16 h, CCCP 20 μM 2 h; CCCP alone 17.2%
[8] = system: cytokine release from human lung explants; assay: human lung slices challenged with LPS: TNFα ELISA of supernatant; conditions: compound 4 h, then LPS 100 ng/ml 4 h
H9C2 cells [9] = assay: tBHP-induced mitochondrial injury in H9C2 cells, MitoTracker Red flow cytometry; conditions: 100 ng/ml 16 h, tBHP 100 μM 45 min
Pink1 [10] = assay: Pink1 protein stability (CHX chase) in BEAS-2B cells; conditions: 1 μg/ml for 16 h, then CHX 40 μg/ml
[11] = system: late neural progenitor cells differentiated from a human iPSC line; assay: DMSO-induced cell death in late neural progenitor cells from an SNCA triplication iPSC line; assay type: cell-based; conditions: 5 ng/mL for 1 wk
Description: Methods. Late neural progenitor cells were derived from an iPSC line from a PD patient with SNCA gene triplication, as previously described (D'Aiuto et al. Organogenesis 10(4): 365-377). […] Images were acquired with a 40× oil objective (1.30 NA) on an Olympus IX71 microscope using Olympus CellSens V1.17 with a DP80 camera. Cell death was assessed by counting condensed/fragmented nuclei. Results.

[12] = intracerebral ventricular infusion in mice for 2 weeks (tolerability); assay type: in vivo, mouse; conditions: 10 ug/ml via intracerebral ventricular infusion for 2 weeks
Description: BC 1464 was administered in artificial CSF with DMSO by intracerebroventricular pump to C5bl/6 mice.

Pink1 [13] = assay: Pink1 protein decay in BEAS-2B cells with proteasomal or lysosomal inhibitors and CHX; assay type: cell-based; conditions: 30 min pretreatment (MG132 20 μM, leupeptin 100 μM), then CHX 40 μg/ml
Description: FIGS. 1A-1E. Fbxo7 mediates Pink1 polyubiquitylation and proteasomal degradation. FIG. 1A. BEAS-2B cells were pretreated with MG132 (20 μM), leupeptin (100 μM), or diluent (control, CON) for 30 min, and then were treated with CHX (40 μg/ml) to assay protein decay. The cell lysates were obtained at the indicated time points for immunoblotting. FIG. 1B. BEAS-2B cells were nucleofected with V5-tagged Fbxo7 plasmid at indicated amounts and incubated for 48 h, the whole cell lysates were subjected to immunoblotting. FIG. 1C. BEAS-2B cells were nucleofected with 4 individual shRNAs respectively and analyzed by immunoblotting. FIG. 1D. BEAS-2B cells were nucleofected with control shRNA or Fbxo7 shRNA for 72 h, and then treated with CHX (40 μg/ml). The cells were collected at indicated time points for half-life analysis. FIG. 1E. In vitro ubiquitylation assays were performed with synthesized Pink1 combined with indicated recombinant proteins.
Cell Culture and Transfection.
Pink1 undergoes rapid proteolysis in cells, and the cleaved Pink1 fragment may be degraded through the N-end rule pathway. To test if full length Pink1 is subjected to ubiquitin mediated degradation, we evaluated the ability of proteasomal or lysosomal inhibitors to regulate stability of the kinase. […]

[14] = 5 mg/kg intraperitoneal, 18 h, compared to vehicle control or BC1465

Q: Which “protection in the 6-OHDA model” value (primary fibroblasts) does the source give for `O=C(CCCn1c(SCC(=O)NCC2CCCO2)nc2ccccc2c1=O)NCc1ccccc1` (stereo not drawn) [BC1464] here?
A: The value was “conferred protection”.

Q: What about the “MPP+ elicited injury (cell viability)” value (SH-SY5Y cells) of the same compound?
A: The value was “significantly decreased MPP+ elicited injury”.

Q: And the lavage bacteria counts ([1]; 5 mg/kg intraperitoneal at time of PA103, 18 h)?
A: Its lavage bacteria counts is “no effect”.

Q: What about the lavage cell numbers [1, 14] of the same compound?
A: Its lavage cell numbers is “significantly decreased”.

Q: And the lavage cytokine levels [1, 14]?
A: The lavage cytokine levels was “significantly decreased”.

Q: What about the lavage protein [1, 14] of the same compound?
A: Its lavage protein is “significantly decreased”.

Q: And the “retraction and simplification of the dendritic arbor” value (primary cortical neurons; 5 μg/ml, versus BC1465)?
A: The value was “protect against retraction and simplification of the dendritic arbor”.

Q: What about the “cell death in primary cortical neurons” value (primary cortical neurons) of the same compound?
A: The value was “reduce cell death”.

Q: What about the “Pink1 levels after Fbxo7 siRNA treatment” value (Pink1 [2]) of the same compound?
A: Its value is “not observed”.

Q: What about the “Pink1 protein levels in human lung explants” value (PINK1 [3]) of the same compound?
A: The value was “selectively increase Pink1 protein levels”.

Q: What about the “reduction of LPS stimulated release of TNF” value ([4]; 1 ng/ml) of the same compound?
A: The value was ~37%.

Q: What about the “LPS stimulated release of TNF” value ([4]; 10 ng/ml) of the same compound?
A: The value was “potently blocked”.

Q: And the “mitochondrial membrane potential disrupted by CCCP (JC1)” value (H9C2 cells [5])?
A: Its value is “maintains the mitochondrial membrane potential”.

Q: And the “PINK1 expression in the presence of cycloheximide” value (PINK1 [6])?
A: Its value is “stabilizes PINK1 expression”.

Q: What about the “CCCP damaged (depolarized) mitochondria” value (H9C2 cells [7]) of the same compound?
A: Its value is 10.5%.

Q: What about the “cytokine release in response to endotoxin” value [8] of the same compound?
A: Its value is “inhibit cytokine release”.

Q: And the “protection from tBHP-induced mitochondrial injury” value (H9C2 cells [9])?
A: The value was “largely protected mitochondria from oxidative stress”.

Q: What about the “mitochondrial injury (damaged mitochondria) after tBHP” value (H9C2 cells [9]; tBHP with vehicle 45.3%, untreated 4.1%) of the same compound?
A: The value was 26.1%.

Q: What about the “Pink1 protein stability upon inhibiting protein synthesis” value (Pink1 [10]) of the same compound?
A: The value was “largely stabilized Pink1”.

Q: And the “toxicity elicited by DMSO (condensed/fragmented nuclei)” value [11]?
A: The value was “prevented toxicity elicited by DMSO”.

Q: What about the toxicity / survival [12] of the same compound?
A: Its toxicity / survival is “no overt toxicity”.

Q: Which “Pink1 accumulation / turnover” value (Pink1 [13]) does the source give for `CC(C)C[C@@H](C=O)NC(=O)[C@H](CC(C)C)NC(=O)[C@H](CC(C)C)NC(=O)OCc1ccccc1` [MG132] (Cbz-Leu-Leu-Leu-aldehyde) here?
A: Its value is “accumulated not only the Pink1 fragment, but also full length Pink1”.

Q: With `CC(=O)N[C@@H](CC(C)C)C(=O)N[C@@H](CC(C)C)C(=O)N[C@H](C=O)CCCNC(=N)N` [leupeptin] as the compound, how does the “Pink1 accumulation / turnover” value (Pink1 [13]) read?
A: The value was “little impact on basal Pink1 turnover”.

Q: Which “Pink1 protein stability upon inhibiting protein synthesis” value (Pink1 [10]) does the source give for `N#Cc1ccccc1Cn1c(=O)n(CCCC(=O)NCc2ccc3c(c2)OCO3)c(=O)c2ccccc21` [BC1465, reference compound] here?
A: The value was “no effect on Pink1 protein stability”.
